For orientation: pKa means the negative logarithm of the acid dissociation constant.

Where two headings read alike, the source gives them in different places.

The values below come from PMC10893103, “Cyclodextrin-Enabled Enantioselective Complexation Study of Cathinone Analogs” (Molecules, 2024).

Data set [1] is described as follows: pKa determination by CE-pH titration. In kind it is physicochemical. To be noted: 25 mM Na2HPO4 / 25 mM Na2B4O7 buffers, pH 7–10, 25 °C. An excerpt: CE is a widely used technique for the analysis of charged compounds; thus, the acid-base properties and the pKa of the analyte are crucial in CE method development. Furthermore, the protonation state of compounds has a decisive influence on both their behavior in the body and their affinity for CDs. […] However, it has the disadvantage that its reproducibility is less than that of conventional pH potentiometry; thus, the results of CE-pH titration should be confirmed by independent method (potentiometry, NMR-pH titration).
In order to determine the pKa of the five cathinone analogs, CE-pH titration was applied, in which the purpose was to register the effective mobility changes as a function of pH. As the five tested compounds contain secondary or tertiary amino groups, the pH range tested was pH 7–10, applying Na2HPO4 -Na2B4O7 buffers, where the appropriate pH was adjusted with hydrochloric acid. At a given pH, the mobility is determined by the sum of the mobility of the protonated and deprotonated forms:(1) μpH=μLxL+μHLxHL=μL+μHLKH^+/1+KH^+ where the μpH is the mobility of the compound at the given pH; μL and μHL are the mobilities of the deprotonated and protonated forms, respectively; xL and xHL are the mole fractions of the deprotonated and protonated forms, respectively; and K is the protonation constant. Plotting the μpH data against pH gives the titration curves from which the protonation constant can be calculated according to Equation (1).

The conditions of data set [2]: CE-pH titration; cited from earlier work.
The nature of data set [3]: pKa determination by potentiometry. The class given is physicochemical. To be noted: aqueous solution; I = 0.15 M KCl, 25.0 °C. The protocol: The protonation constants were confirmed by potentiometry using a GLpKa instrument (Sirius, Forest Row, UK) equipped with a combination Ag/AgCl pH electrode. The four-parameter technique (Four PlusTM method) was used for electrode calibration. The titrations were carried out at constant ionic strength (I = 0.15 M KCl) and temperature (T = 25.0 ± 0.5 °C) under a nitrogen atmosphere. An amount of 10 ml of a ~1 mM aqueous solution of the analytes (4-MEC, MDPV) was pre-acidified to pH 2.0 with 0.5 M HCl and then titrated with 0.5 M KOH to pH 12.2. Three parallel measurements were carried out. The pKa values were calculated using the RefinementProTM software (Sirius, Forest Row, UK).

The nature of data set [4]: Affinity capillary electrophoresis (ACE), pH 7.4. To be noted: 30 mM phosphate buffer pH 7.4, 25 °C, 15 kV. In outline: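 Mobility-shift ACE of cathinone analogues with cyclodextrins (0.25–20 mM in BGE) in 30 mM phosphate pH 7.4, 25 °C, fused-silica capillary, 15 kV, UV 215 nm, DMSO as EOF marker. Mobilities obtained by HVL peak fitting; complex stability constants corrected for viscosity and ionic strength.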

Data set [5] is described as follows: Affinity capillary electrophoresis (ACE), pH 4.5. The following applies: 20 mM acetate buffer pH 4.5, 25C, 15 kV. An excerpt:
The simplest way to determine the mobility is from the migration times (tmax) read from the electropherograms from which the apparent mobility could be calculated, but more accurate mobility values could be obtained by the determination with the Haarhoff–van der Linde (HVL) function based on Equation (2). (2) HVLδ(t;a0,a1,a2,a3δ)=a0/a2a3δ2πexp[−1/2(t−a1/a2)^2]/1/exp(a3δ)−1+1/2[1+erf(t−a1/2a2)] where a0 is the area of the HVL function, a1 is the position of the Gaussian component, a2 is the standard deviation of the Gaussian component, and a3δ is the peak shape distortion. The application of the HVL function is necessary in the case of accurate ACE measurements because, in several cases, the peaks are distorted due to the complex formation, which makes reading the migration times and calculating the mobility more difficult and imprecise.
The most popular technique for quantifying the analyte–ligand interaction with CE is mobility shift ACE. This technique involves varying the background electrolyte’s ligand concentrations while introducing a constant volume of the analyte and an EOF marker into the capillary. The analyte–ligand equilibrium is assumed to happen before the separation is complete, requiring fast complex formation kinetics. Typical ligand concentrations are 1–2 orders of magnitude greater than the analyte. The following equation describes the observed mobility as a function of the interaction with the following analyte ligand:(3) μ=μfff+μcfc where μ is the observed mobility, μf and μc are the electrophoretic mobility of the free and complexed analyte, and ff and fc are the free and ligand-bound fractions of the analyte.
Assuming a 1:1 binding stoichiometry, the effective mobility (μeff, calculated by correcting with the EOF marker mobility) can be expressed as (4) μeff=μfK+μc[L]/K+[L] where K is the equilibrium dissociation constant and [L] is the ligand concentration. The apparent complex stability constant (K) can be calculated using several methods, e.g., the X-reciprocal method with linear fitting, but non-linear curve fitting based on Equation (4) is more accurate. A hyperbolic growing or decline curve is obtained, and K could be determined by plotting the effective mobility as a function of the [L] (e.g., CD concentration) in the background electrolyte. The CEval software enables faster and simpler evaluation of electropherograms and further data processing to determine the stability constants of complexes with a 1:1 stoichiometric ratio [27].
During the ACE measurement series, the CD concentration is increased whilst injecting a constant amount of the cathinone derivatives and the EOF marker DMSO. The complex stability calculations were conducted with the CEval program applying the HVL function to eliminate the effect of electromigration dispersion on migration time for exact mobility and, thus complex stability constant determination. Viscosity correction and ionic strength correction were applied. […]

In data set [1], `CCC(NC)C(=O)c1ccc2c(c1)OCO2` (racemic) [Butylone, (±)-1-(1,3-benzodioxol-5-yl)-2-(methylamino)-butan-1-one] showed a pKa of 8.64 ± 0.01.
Regarding `CNC(C)C(=O)c1ccc(C)cc1` (racemic) [Mephedrone, (±)-2-(methylamino)-1-(4-methylphenyl)propan-1-one], the pKa was 8.82 in data set [2] and 8.61 ± 0.01 in data set [1].
With `CCNC(C)C(=O)c1ccc(C)cc1` (racemic) [4-MEC, (±)-2-(ethylamino)-1-(4-methylphenyl)propan-1-one], the pKa was found to be 8.85 ± 0.04 in data set [3] and 8.81 ± 0.02 in data set [1].
With `CO[C@@H]1[C@@H](OC)[C@H]2O[C@H]3[C@H](OC)[C@@H](OC)[C@@H](O[C@H]4[C@H](OC)[C@@H](OC)[C@@H](O[C@H]5[C@H](OC)[C@@H](OC)[C@@H](O[C@H]6[C@H](OC)[C@@H](OC)[C@@H](O[C@H]7[C@H](OC)[C@@H](OC)[C@@H](O[C@H]8[C@H](OC)[C@@H](OC)[C@@H](O[C@@H]1[C@@H](COS(=O)(=O)O)O2)O[C@@H]8COS(=O)(=O)O)O[C@@H]7COS(=O)(=O)O)O[C@@H]6COS(=O)(=O)O)O[C@@H]5COS(=O)(=O)O)O[C@@H]4COS(=O)(=O)O)O[C@@H]3COS(=O)(=O)O` [HDMS-β-CD, heptakis-(2,3-O-dimethyl, 6-O-sulfo)-β-CD], the “MDPV–CD complex stability constant, Kstab/Kstab1 (unresolved or first migrating enantiomer)” value in data set [4] was determined as 915 ± 265 M⁻¹. Further, in data set [5], the “4-MEC–CD complex stability constant Kstab1 (first migrating enantiomer)” value is 170 ± 15 M⁻¹; the “4-MEC–CD complex stability constant, Kstab2 (second migrating enantiomer)” value amounted to 190 ± 15 M⁻¹; the “Butylone–CD complex stability constant Kstab1 (first migrating enantiomer)” value worked out at 150 ± 10 M⁻¹; the “Butylone–CD complex stability constant, Kstab2 (second migrating enantiomer)” value stood at 180 ± 12 M⁻¹. In data set [5], the “Flephedrone–CD complex stability constant Kstab1 (first migrating enantiomer)” value came out at 250 ± 7 M⁻¹; the “Flephedrone–CD complex stability constant, Kstab2 (second migrating enantiomer)” value is 235 ± 20 M⁻¹; the “MDPV–CD complex stability constant Kstab1 (first migrating enantiomer)” value turned out to be 160 ± 15 M⁻¹; the “MDPV–CD complex stability constant, Kstab2 (second migrating enantiomer)” value turned out to be 175 ± 12 M⁻¹. In addition, in data set [5], the “Mephedrone–CD complex stability constant Kstab1 (first migrating enantiomer)” value worked out at 205 ± 20 M⁻¹ and the “Mephedrone–CD complex stability constant, Kstab2 (second migrating enantiomer)” value came out at 205 ± 15 M⁻¹.
For the compound `CNC(C)C(=O)c1ccc(F)cc1` (racemic) [Flephedrone, (±)-1-(4-fluorophenyl)-2-(methylamino)propan-1-one], the pKa in data set [1] was found to be 8.56 ± 0.01.
Regarding `CCCC(C(=O)c1ccc2c(c1)OCO2)N1CCCC1` (racemic) [MDPV, (±)-1-(benzo[d]-[1, 3]-dioxol-5-yl)-2-(pyrrolidin-1-yl)pentan-1-one], the pKa in data set [2] was 9.13; in data set [3] it was 9.05 ± 0.04; in data set [1] it was 9 ± 0.02.
